Experimental data taken from ChEMBL document CHEMBL2311309, “Venezuelines A-G, new phenoxazine-based alkaloids and aminophenols from Streptomyces venezuelae and the regulation of gene target Nur77” (Bioorg Med Chem Lett, 2013).
pIC50: −log10 of the molar value. Active and inactive are the calls of the source. The rule behind the calls is not given here.

How the values were obtained:
Assay type in all cases: functional, cell-based
[1] = Cytotoxicity against human […] cells by MTT method
[2] = Cytotoxicity against human NIH-H460 cells by MTT method
A2780 = assay: Cytotoxicity against human A2780 cells by MTT method
BGC-823 = assay: Cytotoxicity against human BGC823 cells by MTT method
A549 = assay: Cytotoxicity against human A549 cells by MTT method
HCT-8 = assay: Cytotoxicity against human HCT8 cells by MTT method
NIH-H460 [3] = assay: Induction of nur77 gene expression in human NIH-H460 cells after 6 to 12 hrs by RT-PCR analysis
NIH-H460 [4] = assay: Induction of nur77 gene expression in human NIH-H460 cells at 1 to 10 uM by RT-PCR analysis; settings: TDE = time-dependent effect
NIH-H460 [5] = assay: Induction of nur77 gene expression in human NIH-H460 cells at 1 uM within 12 hrs by RT-PCR analysis
NIH-H460 [6] = assay: Induction of nur77 gene expression in human NIH-H460 cells at 10 uM within 6 hrs by RT-PCR analysis
NIH-H460 [7] = assay: Induction of nur77 gene expression in human NIH-H460 cells at 1 to 10 uM after 3 hrs by RT-PCR analysis
NIH-H460 [8] = assay: Induction of nur77 gene expression in human NIH-H460 cells after 3 hrs by RT-PCR analysis

Row | Compound | IC50 [1] [µg/mL] | IC50 [2] [µg/mL] | IC50 (A2780) [µg/mL] | IC50 (BGC-823) [µg/mL] | IC50 (A549) [µg/mL] | IC50 (HCT-8) [µg/mL] | Activity (NIH-H460 [3]) | Activity (NIH-H460 [4]) | Activity (NIH-H460 [5]) | Activity (NIH-H460 [6]) | pIC50 [1] | pIC50 [2] | pIC50 (A2780) | pIC50 (BGC-823) | pIC50 (A549) | pIC50 (HCT-8) | Activity (NIH-H460 [7]) | Activity (NIH-H460 [8])
1 | CC(=O)Nc1cc2c(cc1OC(=O)CO)Oc1ccc(CO)cc1N2 [VNEZUELINE C] | > 50 | > 50 | > 50 | > 50 | > 50 | > 50 | – | – | – | – | – | – | – | – | – | – | – | –
2 | O=C(CO)Nc1cc2nc3cc(CO)ccc3oc-2cc1=O [CHANDRANANIMYCIN D] | > 30 | > 30 | > 30 | > 30 | > 30 | > 30 | – | – | – | – | – | – | – | – | – | – | – | –
3 | CC(=O)Nc1cc2nc3cc(CO)ccc3oc-2cc1=O [EXFOLIAZONE] | – | – | – | – | – | – | Dose-dependent effect | tde | Active | Active | < 5.00 | 4.87 | 5.60 | 5.47 | 5.04 | 5.31 | – | –
4 | CC(=O)Nc1cc2nc3cc(C(=O)O)ccc3oc-2cc1=O [CARBOXYEXFOLIAZONE] | > 30 | > 30 | > 30 | > 30 | > 30 | > 30 | – | – | – | – | – | – | – | – | – | – | – | –
5 | O=c1[nH]cc(F)c(=O)[nH]1 [FLUOROURACIL] | – | – | – | – | – | – | – | – | – | – | 5.41 | 5.15 | 5.27 | 5.42 | 5.81 | 5.27 | – | –
6 | O=C(CO)Nc1cc2c(cc1OC(=O)CO)Oc1ccc(CO)cc1N2 [VNEZUELINE D] | > 50 | > 50 | > 50 | > 50 | > 50 | > 50 | – | – | – | – | – | – | – | – | – | – | inactive | –
7 | O=C1NC2=Nc3cc(CO)ccc3O[C@]23[C@H](O)CC[C@H]13 [VNEZUELINE B] | – | – | – | – | – | – | – | – | – | – | < 5.00 | 5.01 | 5.18 | 5.17 | 5.12 | 5.24 | – | Dose-dependent effect
8 | COCc1ccc(O)c(NC(C)=O)c1 [VNEZUELINE G] | > 50 | > 50 | > 50 | > 50 | > 50 | > 50 | – | – | – | – | – | – | – | – | – | – | – | –
9 | CCCC(=O)OCc1ccc2oc3cc(=O)c(NC(C)=O)cc-3nc2c1 [VNEZUELINE E] | > 30 | > 30 | > 30 | > 30 | > 30 | > 30 | – | – | – | – | – | – | – | – | – | – | – | –
10 | CC(=O)Nc1cc(COCc2ccc(O)c(NC(C)=O)c2)ccc1O [VNEZUELINE F] | > 50 | > 50 | > 50 | > 50 | > 50 | > 50 | – | – | – | – | – | – | – | – | – | – | – | –
11 | CC(=O)Nc1cc(Cc2cc3oc4cc(=O)c(NC(C)=O)cc-4nc3cc2CO)ccc1O [VNEZUELINE A] | > 30 | > 30 | > 30 | > 30 | > 30 | > 30 | – | – | – | – | – | – | – | – | – | – | – | –
